From patent US20200291350A1, “HEPATOCYTE CONSTRUCT AND METHOD FOR PRODUCING THE SAME” (NIHON KOHDEN CORPORATION, priority 2019, published 2020)

How the values were obtained:
Type in all cases: cell-based
[1] = test system: mouse hepatocyte/NHDF cell sheet; test: Effect of added agent on ballooning of mouse hepatocytes in PMH/NHDF hepatocyte construct (H&E staining); conditions: metformin 500 μM added on day 1; mouse hepatocyte/NHDF cell sheet day 8
Experimental: (§1) At pre-determined time points, cell sheet samples were washed by pre-warmed PBS twice and fixed in 4% paraformaldehyde at room temperature for 1 h. Fixed cell sheets were embedded in paraffin, sliced into 4 μm sections and deparaffinized for standard histological staining with hematoxylin and eosin (HE). For immunostainings of cytokeratin 8+18 (CK8/18), sections were treated with Dako proteinase K (Agilent, Santa Clara, Calif., US) for antigen retrieval, incubated in Dako REAL peroxidase-blocking solution (Agilent) to quench endogenous peroxidase activity, and then blocked in Blocking One Histo (Nacalai Tesque, Kyoto, Japan). After that, the sections were incubated with mouse anti-human CK8/18 at 25-fold dilution (Abeam, Cambridge, UK) followed by incubation with horseradish […] donkey anti-mouse IgG H&L (Abeam). The sections were dyed with Dako Liquid DAB+Substrate Chromogen System (Agilent) and the nuclei were stained with hematoxylin. Finally, the sections were mounted, dried and imaged with a light microscope (Nikon).
Primary mouse hepatocytes (PMH) were obtained in the same manner as in Example 3.
As NHDFs, NHDFs used in Example 1 were used.
Primary mouse hepatocytes (PMH)/NHDF co-culture and production of a hepatocyte construct were performed in the same manner as in Example 1 except that PMHs were used in place of the above-mentioned PHHs. […]

[2] = test system: PHH/NHDF cell sheet; test: Effect of added agent on ballooning of human hepatocytes in PHH/NHDF hepatocyte construct (H&E staining); conditions: metformin 500 μM added on day 1; PHH/NHDF cell sheet on day 11 or day 4
Experimental: as §1
As PHHs and NHDFs, PHHs and NHDFs used in Example 1 were used.
Primary human hepatocytes (PHH)/NHDF co-culture and production of a hepatocyte construct were performed in the same manner as in Example 1 described above. […]

[3] = test system: mouse hepatocyte/NHDF cell sheet; test: Hepatocellular ballooning in mouse hepatocyte/NHDF cell sheet made with mitomycin C-treated NHDFs (H&E staining); conditions: NHDFs treated with mitomycin C 6 μg/mL for 2.5 hours before co-culture with PMHs; cell sheet day 8; vs untreated NHDFs
Experimental: as §1
Primary mouse hepatocytes (PMH) were isolated from the liver of a mouse by a modified two-step collagenase perfusion method and purified by a 45% percoll density gradient centrifugation method. The viability of PMHs was 90%.
As NHDFs, NHDFs used in Example 1 were used. […]

Structure (SMILES)	hepatocellular ballooning [1]	hepatocellular ballooning [2]	hepatocellular ballooning [3]
CN(C)C(=N)N=C(N)N [metformin]	suppressed	suppressed	
CO[C@@]12[C@H](COC(N)=O)C3=C(C(=O)C(C)=C(N)C3=O)N1C[C@@H]1N[C@@H]12 [mitomycin C]			suppressed
